Test results from patent publication US8192962B2, “Processes for detecting toxic substances” (Daikin Industries, Ltd., priority 2001, dated 2012).

Test system: Mitochondria-located protein genes
Experiment: DNA chip mRNA expression in yeast, mitochondria-located protein genes (Table 2)
Assay type: cell-based, Saccharomyces cerevisiae S288C
Details: cells incubated two hours with the chemical substance
Experimental: Yeast (Saccharomyces cerevisiae S288C (α SUC2mal mel gap2 CUP1)) were incubated at 25° C. on YPD medium (yeast extract 1%, polypepton 2%, glucose 2%). One of toxic chemical substances was added to the cells at logarithmic growth phase, and the cells were further incubated for two hours. Cells were cultured without any chemical substance in the same condition, and were used as control. Concentrations of the chemical substances were defined to inhibit the growth of the yeast but not lead to death.
After completion of the incubation, the culture was centrifuged to collect the cells. To the cells, sodium acetate buffer (50 mM sodium acetate, 10 mM EDTA, 1% SDS) was added, and the mixture was shaken at 65° C. for five minutes, followed by returning to room temperature, and obtaining the supernatant, of which the procedures were repeated two times. To the supernatant, ½ amount of a solution of phenol/chloroform was added, and the mixture was centrifuged to give a supernatant, which was added with an equal amount of chloroform, and the mixture was centrifuged to give a supernatant. To the supernatant, an equal amount of isopropanol containing 0.3 M sodium acetate was added, and the mixture was allowed to stand at room temperature for 30 minutes, after which the mixture was centrifuged to give a sediment of the whole RNAs. Seventy % ethanol was added to the sediment, and the mixture was again centrifuged to give a sediment, which was then dried and dissolved in water. mRNA was isolated from the whole RNAs as followings. In view of the fact that a poly A chain is attached to the 3′ terminus of mRNA, a polynucleotide having a poly T structure which was immobilized on the surface of latex beads was used to trap the mRNA, and then the mRNA was washed and eluted with spine column (Oligotex-dT30<Super>mRNA Purification Kit, Takara). Reverse transcription of the mRNA was conducted with a reverse transcriptase (Super Script II Reverse Transcriptase; catalogue No. 18064-014, GibcoBRL) using fluorescence-labeled nucleotides to give cDNAs that were introduced with Cy3-dUTP or Cy5-dUTP during the reverse transcription.
The labeled cDNAs were dissolved in TE buffer (10mM Tris-HCl/1 mM EDTA, pH8.0), and the solution was dropped on the DNA chip containing the whole genes of yeast (DNA Chip Research Inc. Japan) so that the cDNAs were hybridized on the DNA chip at 65° C. for over 12 hours. The fluoresces intensity of the DNA chip was read with a scanner, and the ratio relative to the fluorescence intensity resulting from the absence of chemical substance was estimated as the following, which is shown in Tables 1 to 9: […]

O=[N+]([O-])c1cc[n+]([O-])c2ccccc12 [(5), 4-nitroquinolin-N-oxide]
The level of expressed mRNA in the presence of chemical substance/The level of expressed mRNA in the absence of chemical substance (yeast gene YJR121W): 0.8 | The level of expressed mRNA in the presence of chemical substance/The level of expressed mRNA in the absence of chemical substance (yeast gene YKL003C): 1.0 | The level of expressed mRNA in the presence of chemical substance/The level of expressed mRNA in the absence of chemical substance (yeast gene YKL016C): 1.5 | The level of expressed mRNA in the presence of chemical substance/The level of expressed mRNA in the absence of chemical substance (yeast gene YKL141W): 1.5 | The level of expressed mRNA in the presence of chemical substance/The level of expressed mRNA in the absence of chemical substance (yeast gene YKL142W): 0.7 | The level of expressed mRNA in the presence of chemical substance/The level of expressed mRNA in the absence of chemical substance (yeast gene YKL148C): 0.8 | The level of expressed mRNA in the presence of chemical substance/The level of expressed mRNA in the absence of chemical substance (yeast gene YKL170W): 1.3 | The level of expressed mRNA in the presence of chemical substance/The level of expressed mRNA in the absence of chemical substance (yeast gene YKL194C): 1.8 | The level of expressed mRNA in the presence of chemical substance/The level of expressed mRNA in the absence of chemical substance (yeast gene YKR066C): 1.0 | The level of expressed mRNA in the presence of chemical substance/The level of expressed mRNA in the absence of chemical substance (yeast gene YLL041C): 1.6 | The level of expressed mRNA in the presence of chemical substance/The level of expressed mRNA in the absence of chemical substance (yeast gene YLR038C): 1.8 | The level of expressed mRNA in the presence of chemical substance/The level of expressed mRNA in the absence of chemical substance (yeast gene YLR259C): 1.1 | The level of expressed mRNA in the presence of chemical substance/The level of expressed mRNA in the absence of chemical substance (yeast gene YLR295C): 2.2 | The level of expressed mRNA in the presence of chemical substance/The level of expressed mRNA in the absence of chemical substance (yeast gene YLR304C): 0.6 | The level of expressed mRNA in the presence of chemical substance/The level of expressed mRNA in the absence of chemical substance (yeast gene YLR348C): 0.9 | The level of expressed mRNA in the presence of chemical substance/The level of expressed mRNA in the absence of chemical substance (yeast gene YLR395C): 0.7 | The level of expressed mRNA in the presence of chemical substance/The level of expressed mRNA in the absence of chemical substance (yeast gene YML054C): 1.3 | The level of expressed mRNA in the presence of chemical substance/The level of expressed mRNA in the absence of chemical substance (yeast gene YML120C): 0.6 | The level of expressed mRNA in the presence of chemical substance/The level of expressed mRNA in the absence of chemical substance (yeast gene YML129C): 1.7 | The level of expressed mRNA in the presence of chemical substance/The level of expressed mRNA in the absence of chemical substance (yeast gene YMR023C): 1.7 | The level of expressed mRNA in the presence of chemical substance/The level of expressed mRNA in the absence of chemical substance (yeast gene YMR035W): 0.8 | The level of expressed mRNA in the presence of chemical substance/The level of expressed mRNA in the absence of chemical substance (yeast gene YMR083W): 1.5 | The level of expressed mRNA in the presence of chemical substance/The level of expressed mRNA in the absence of chemical substance (yeast gene YMR089C): 0.8 | The level of expressed mRNA in the presence of chemical substance/The level of expressed mRNA in the absence of chemical substance (yeast gene YMR152W): 0.8 | The level of expressed mRNA in the presence of chemical substance/The level of expressed mRNA in the absence of chemical substance (yeast gene YMR193W): 2.2 | The level of expressed mRNA in the presence of chemical substance/The level of expressed mRNA in the absence of chemical substance (yeast gene YMR203W): 0.6 | The level of expressed mRNA in the presence of chemical substance/The level of expressed mRNA in the absence of chemical substance (yeast gene YMR267W): 1.0 | The level of expressed mRNA in the presence of chemical substance/The level of expressed mRNA in the absence of chemical substance (yeast gene YNL055C): 0.9 | The level of expressed mRNA in the presence of chemical substance/The level of expressed mRNA in the absence of chemical substance (yeast gene YNL071W): 0.6 | The level of expressed mRNA in the presence of chemical substance/The level of expressed mRNA in the absence of chemical substance (yeast gene YNL073W): 0.6 | The level of expressed mRNA in the presence of chemical substance/The level of expressed mRNA in the absence of chemical substance (yeast gene YNL104C): 0.8 | The level of expressed mRNA in the presence of chemical substance/The level of expressed mRNA in the absence of chemical substance (yeast gene YNL256W): 1.0 | The level of expressed mRNA in the presence of chemical substance/The level of expressed mRNA in the absence of chemical substance (yeast gene YOL096C): 1.2 | The level of expressed mRNA in the presence of chemical substance/The level of expressed mRNA in the absence of chemical substance (yeast gene YOR020C): 1.5 | The level of expressed mRNA in the presence of chemical substance/The level of expressed mRNA in the absence of chemical substance (yeast gene YOR037W): 1.5 | The level of expressed mRNA in the presence of chemical substance/The level of expressed mRNA in the absence of chemical substance (yeast gene YOR100C): 1.0 | The level of expressed mRNA in the presence of chemical substance/The level of expressed mRNA in the absence of chemical substance (yeast gene YOR130C): 1.8 | The level of expressed mRNA in the presence of chemical substance/The level of expressed mRNA in the absence of chemical substance (yeast gene YOR142W): 1.4 | The level of expressed mRNA in the presence of chemical substance/The level of expressed mRNA in the absence of chemical substance (yeast gene YOR150W): 0.8 | The level of expressed mRNA in the presence of chemical substance/The level of expressed mRNA in the absence of chemical substance (yeast gene YOR176W): 1.0 | The level of expressed mRNA in the presence of chemical substance/The level of expressed mRNA in the absence of chemical substance (yeast gene YOR187W): 0.6 | The level of expressed mRNA in the presence of chemical substance/The level of expressed mRNA in the absence of chemical substance (yeast gene YOR316C): 1.0 | The level of expressed mRNA in the presence of chemical substance/The level of expressed mRNA in the absence of chemical substance (yeast gene YPL040C): 0.8 | The level of expressed mRNA in the presence of chemical substance/The level of expressed mRNA in the absence of chemical substance (yeast gene YPL134C): 1.4 | The level of expressed mRNA in the presence of chemical substance/The level of expressed mRNA in the absence of chemical substance (yeast gene YPL135W): 1.6 | The level of expressed mRNA in the presence of chemical substance/The level of expressed mRNA in the absence of chemical substance (yeast gene YPL215W): 0.8 | The level of expressed mRNA in the presence of chemical substance/The level of expressed mRNA in the absence of chemical substance (yeast gene YPL262W): 0.6 | The level of expressed mRNA in the presence of chemical substance/The level of expressed mRNA in the absence of chemical substance (yeast gene YPR024W): 1.3 | The level of expressed mRNA in the presence of chemical substance/The level of expressed mRNA in the absence of chemical substance (yeast gene YPR037C): 0.8 | The level of expressed mRNA in the presence of chemical substance/The level of expressed mRNA in the absence of chemical substance (yeast gene YPR047W): 0.9 | The level of expressed mRNA in the presence of chemical substance/The level of expressed mRNA in the absence of chemical substance (yeast gene YPR134W): 1.5
